According to PubChem BioAssay (NCI):
“And” between values parts separate entries of the source, which are not always exact repeats. Identical values can stand only once.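 How tested: cells in 96-well plates exposed to compound for 48 hours at five concentrations. The concentration for 50% growth inhibition is given as GI50. TGI: total growth inhibition.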

Legend:
Assay in all cases: NCI anticancer screen, dose series, 48 h
[1] = tested on: SF-268 CNS
[2] = tested on: SN12C renal
[3] = tested on: EKVX NSCLC
[4] = tested on: HCT-116 colon
[5] = tested on: HOP-92 NSCLC
[6] = tested on: K-562 leukemia
[7] = tested on: U251 CNS
[8] = tested on: A498 renal
[9] = tested on: COLO 205 colon
[10] = tested on: 786-0 renal

SMILES | GI50 [1] | TGI [1] | GI50 [2] | TGI [2] | GI50 [3] | TGI [3] | GI50 [4] | TGI [4] | GI50 [5] | TGI [5] | GI50 [6] | TGI [6] | GI50 [7] | TGI [7] | GI50 [8] | TGI [8] | GI50 [9] | TGI [9] | GI50 [10] | TGI [10]
O=C(O)CCN1C(=O)/C(=C/C(Cl)=C/c2ccccc2)SC1=S | 3.15 µM | 20.2 µM | 2.67 µM | 9.41 µM | 3.75 µM | 14.2 µM | 1.82 µM | 5.06 µM | 4.35 µM | 12.5 µM | 1.88 µM | 6.26 µM | 1.66 µM | 3.16 µM | 1.97 µM | 3.62 µM | 2.86 µM | 6.71 µM | 3.23 µM | 10.5 µM
COc1ccc(C2CC(C)=Nc3c([nH]c(=S)[nH]c3=O)N2)cc1 (stereo not given) |  | > 100 µM |  | 36.7 µM |  | 50.2 µM |  | 30.1 µM |  | > 100 µM |  | 34.4 µM |  | 32.4 µM |  | 36.9 µM |  | 32.7 µM |  | 31.2 µM
CC(Cl)CC(=O)Nc1ccc2c(c1)oc(=O)c1cc(NC(=O)CC(C)Cl)ccc12 (stereo not given) | 10.1 µM | 33.3 µM | 16.4 µM | 32 µM | 27 µM | 88 µM | 12.4 µM | 40 µM | 2.09 µM | 10.7 µM | 13.8 µM | 33.6 µM | 11.1 µM | 23.7 µM | 16.1 µM | 38 µM | 14.4 µM | > 100 µM | 16.9 µM | 44.1 µM
C=C(C)[C@@H]1CC[C@]2(C#N)CC[C@]3(C)[C@H](CC[C@@H]4[C@@]5(C)CCCNC(C)(C)[C@@H]5CC[C@]43C)[C@@H]12 | 3.11 µM | 10.4 µM | 1.77 µM | 3.25 µM | 1.79 µM | 3.83 µM | 1.75 µM | 3.19 µM | 2.69 µM | 11.3 µM | 2.09 µM | 10.5 µM | 1.75 µM | 3.13 µM | 10.1 µM | 23 µM | 1.96 µM | 3.51 µM | 1.69 µM | 3.07 µM
C[C@H]1CC(=O)[C@@]2(O)C#C/C=C\C#C[C@@H]3Nc4c(cc(O)c5c4C(=O)c4ccccc4C5=O)[C@]24O[C@]314 | 0.00599 µM | 0.0897 µM and 0.543 µM | 0.0025 µM | 0.0288 µM and 0.0201 µM | 0.292 µM | 0.885 µM and 1.4 µM | 0.0025 µM | 0.178 µM and 0.0836 µM |  | 0.336 µM |  | 0.233 µM and 0.605 µM |  | 0.453 µM |  | 0.217 µM |  | 0.342 µM | 0.00435 µM | 0.106 µM and 0.262 µM
CC(C)S(=O)(=O)n1c(N)nc2ccc(/C(=N/O)c3ccccc3)cc21 |  | > 100 µM |  | > 100 µM |  | 59.1 µM |  | 40.2 µM |  | 41.1 µM |  | > 100 µM |  | > 100 µM |  | 31.7 µM |  | 33.5 µM |  | > 100 µM
O=C(/C=C/c1cccs1)Nc1ncc(Cc2ccccc2F)s1 | 0.757 µM | > 100 µM | 0.633 µM | > 100 µM | 0.412 µM | > 100 µM | 0.273 µM | > 100 µM | 1.39 µM | > 100 µM | 0.0749 µM | > 100 µM | 0.35 µM | > 100 µM | 0.175 µM | 0.899 µM | 0.325 µM | 26.9 µM | 0.59 µM | > 100 µM
CCOC(=O)c1cc2cc([N+](=O)[O-])ccc2oc1=O |  | > 100 µM |  | > 100 µM |  | > 100 µM |  | > 100 µM |  | > 100 µM |  | > 100 µM |  | > 100 µM |  | > 100 µM |  | > 100 µM |  | > 100 µM
CCn1cc(C2NC(=O)c3cc(F)ccc3N2)c2cccc(Cl)c21 (stereo not given) | 1.92 µM | > 100 µM | 0.706 µM | > 100 µM | 0.461 µM | > 100 µM | 0.177 µM | > 100 µM | > 24.4 µM | > 100 µM | 0.0414 µM | > 100 µM | 0.33 µM | > 100 µM | 0.0879 µM | 0.402 µM | 0.349 µM |  | 0.618 µM | > 50.6 µM
COCCn1cc(-c2csc(-c3c[nH]c4ccc(F)cc34)n2)c2cccnc21 | 7.67 µM | > 100 µM | > 100 µM | > 100 µM | 1.98 µM | > 100 µM | 3.77 µM | > 100 µM | 6.28 µM | > 100 µM | 2.12 µM | > 100 µM | 5.14 µM | > 100 µM | 3.26 µM | 9.4 µM | 2.69 µM | > 100 µM | 5.12 µM | > 100 µM
N#CC(C#N)=C/C=C/c1cccc([N+](=O)[O-])c1 | 1.54 µM | 12.9 µM | 3.23 µM | 30 µM | 3.47 µM | 27.8 µM | 0.277 µM | 1.1 µM | 2.43 µM | 7.71 µM | 1.59 µM | > 100 µM | 1.08 µM | 5.03 µM | 1.99 µM | 5.21 µM | 1.26 µM | 3.26 µM | 1.51 µM | 3.17 µM
COc1ccccc1OCC(O)CO (stereo not given) | > 100 µM | > 100 µM | > 100 µM | > 100 µM | > 100 µM | > 100 µM | > 100 µM | > 100 µM | > 100 µM | > 100 µM | > 100 µM | > 100 µM | > 100 µM | > 100 µM | > 100 µM | > 100 µM | > 100 µM | > 100 µM | > 100 µM | > 100 µM
C/C(=N\N=C(N)N)c1sc(-c2nc(C)c(/C(C)=N/N=C(N)N)s2)nc1C |  | > 100 µM |  | > 100 µM |  | > 100 µM |  | > 100 µM |  | > 100 µM |  | > 100 µM |  | > 100 µM |  | > 100 µM |  | > 90.6 µM |  | > 68.5 µM
O=C1C=Cc2noc3cccc1c23 |  | 12.4 µM |  | 27.3 µM |  | 10.2 µM |  | 4.47 µM |  | 5.22 µM |  | 9.65 µM |  | 26.4 µM |  | 27.5 µM |  | 34 µM |  | 20.7 µM
C/C(=N\NC(=S)Nc1ccc([N+](=O)[O-])cc1S(=O)(=O)O)c1ccccn1 |  | > 100 µM |  | > 100 µM |  | > 100 µM |  | > 100 µM |  | > 100 µM |  | > 100 µM |  | > 100 µM |  | 88.8 µM |  | > 100 µM |  | > 100 µM
Cc1ccc(S(=O)(=O)ON=C2CC(c3ccccc3)N(C)C(c3ccccc3)C2)cc1 (stereo not given) |  | 51.8 µM and 51.1 µM |  | 55 µM |  | > 100 µM |  | 29.6 µM and 27.5 µM |  | 43.5 µM and 46.7 µM | 60.1 µM and 29.3 µM | > 100 µM |  | 55.3 µM and 53.6 µM |  | 70.8 µM |  | 29 µM and 28.3 µM |  | 44.9 µM and 58.5 µM
